Data published in US20200216416A1, “QUINOLINE COMPOUNDS AS INHIBITORS OF TAM AND MET KINASES” (Array BioPharma Inc., priority 2019, published 2020).

Tests used:
[1] = biological target: T1, His-tagged recombinant human AXL cytoplasmic domain (Homo sapiens, UniProt P30530); experiment: AXL Enzyme Assay (LanthaScreen Eu Kinase Binding); conditions: averaged IC50; 60-minute incubation at 22° C.; TR-FRET
T1 construct: His-tagged recombinant human AXL cytoplasmic domain
T1 sequence (P30530 473-894 limits assumed): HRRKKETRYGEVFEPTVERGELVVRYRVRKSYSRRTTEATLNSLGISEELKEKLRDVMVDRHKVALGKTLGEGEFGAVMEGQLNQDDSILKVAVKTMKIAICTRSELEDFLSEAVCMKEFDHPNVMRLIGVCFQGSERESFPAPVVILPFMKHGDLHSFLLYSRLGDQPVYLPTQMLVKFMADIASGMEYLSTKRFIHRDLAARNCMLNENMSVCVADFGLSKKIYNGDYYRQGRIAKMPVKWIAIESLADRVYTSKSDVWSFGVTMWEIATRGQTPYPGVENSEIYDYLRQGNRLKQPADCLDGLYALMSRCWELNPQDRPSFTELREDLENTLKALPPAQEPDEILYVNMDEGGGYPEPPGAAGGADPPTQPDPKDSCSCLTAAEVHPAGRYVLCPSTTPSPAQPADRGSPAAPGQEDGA
Experimental: (§1) Compounds disclosed herein were screened for their ability to inhibit AXL kinase using Invitrogen's LanthaScreen™Eu Kinase Binding technology. His-tagged recombinant human AXL cytoplasmic domain was incubated with 20 nM Alexa-Fluor® Tracer 236 (PR9078A), 2 nM biotinylated anti-His (Cat. No. M4408), and 2 nM europium-labeled Streptavidin (Cat. No. PV5899) along with test compound in a buffer consisting of 25 mM HEPES, pH 7.4, 10 mM MgCl2, 0.01% Triton X-100, and 2% DMSO. Compounds were typically prepared in a threefold serial dilution in DMSO and added to the assay to give the appropriate final concentration. After a 60-minute incubation at 22° C., the reaction was measured using a PerkinElmer EnVision multimode plate reader via TR-FRET dual wavelength detection, and the percent of control (POC) was calculated using a ratiometric emission factor. […] The POC values are fit to a 4 parameter logistic curve and the IC50 value is point where the curve crosses 50 POC.

[2] = biological target: T2, His-tagged recombinant human MER cytoplasmic domain (Homo sapiens, UniProt Q12866); experiment: MER Enzyme Assay (LanthaScreen Eu Kinase Binding); conditions: averaged IC50; MER 5 nM; 60-minute incubation at 22° C.; TR-FRET
T2 construct: His-tagged recombinant human MER cytoplasmic domain
T2 sequence (Q12866 527-999 limits assumed): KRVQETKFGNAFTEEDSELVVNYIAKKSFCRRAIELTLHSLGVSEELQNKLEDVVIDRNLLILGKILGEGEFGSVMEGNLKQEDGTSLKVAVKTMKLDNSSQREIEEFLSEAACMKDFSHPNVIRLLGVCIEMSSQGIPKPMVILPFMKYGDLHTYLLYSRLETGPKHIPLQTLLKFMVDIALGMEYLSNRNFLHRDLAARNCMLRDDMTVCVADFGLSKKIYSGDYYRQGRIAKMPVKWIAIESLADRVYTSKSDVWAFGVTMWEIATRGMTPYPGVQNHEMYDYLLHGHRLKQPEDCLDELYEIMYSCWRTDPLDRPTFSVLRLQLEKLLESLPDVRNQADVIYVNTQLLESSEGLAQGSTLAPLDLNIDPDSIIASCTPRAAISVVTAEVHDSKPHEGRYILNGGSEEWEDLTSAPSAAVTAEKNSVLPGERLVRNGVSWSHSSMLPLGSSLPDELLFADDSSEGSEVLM
Experimental: as §1, with “human MER” for “human AXL”, “domain (5 nM)” for “domain”, “mM MgCl 2,” for “mM MgCl2,”

[3] = biological target: T3, GST-tagged recombinant human TYRO3 kinase domain (Homo sapiens, UniProt Q06418); experiment: TYRO3 Enzyme Assay (LanthaScreen Eu Kinase Binding); conditions: averaged IC50; TYRO3 5 nM; 60-minute incubation at 22° C.; TR-FRET
T3 construct: GST-tagged recombinant human TYRO3 kinase domain; purchased Carna PR7480A
T3 sequence (Q06418 518-790 limits assumed): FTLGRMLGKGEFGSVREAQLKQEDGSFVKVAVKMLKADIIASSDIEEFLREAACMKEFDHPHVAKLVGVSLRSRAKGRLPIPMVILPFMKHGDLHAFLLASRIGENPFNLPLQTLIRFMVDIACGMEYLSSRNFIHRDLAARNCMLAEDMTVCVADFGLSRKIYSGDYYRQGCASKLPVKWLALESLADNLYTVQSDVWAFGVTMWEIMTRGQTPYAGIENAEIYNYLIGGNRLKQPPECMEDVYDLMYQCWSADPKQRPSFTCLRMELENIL
Experimental: Compounds disclosed herein were screened for their ability to inhibit TYRO3 kinase using Invitrogen's LanthaScreenTM Eu Kinase Binding technology. GST-tagged recombinant human TYRO3 kinase domain from Carna (5 nM; Cat. No. P[…]) was incubated with 20 nM Alexa-Fluor® Tracer 236 (P[…]) and 2 nM Europium-anti-GST (Cat. No. A15116) along with test compound in a buffer consisting of 25 mM HEPES, pH 7.4, 10 mM MgCl2, 0.01% Triton X-100, and 2% DMSO. Compounds are typically prepared in a threefold serial dilution in DMSO and added to the assay to give the appropriate final concentration. After a 60-minute incubation at 22° C., the reaction was measured using a PerkinElmer EnVision multimode plate reader via TR-FRET dual wavelength detection, and the percent of control (POC) calculated using a ratiometric emission factor. […] The POC values were fit to a 4 parameter logistic curve and the IC50 value is point where the curve crosses 50 POC.

IC50 [1]: 6 nM
IC50 [2]: 19 nM
IC50 [3]: 19 nM
Compound: COc1ccc2nccc(Oc3ccc(NC(=O)c4cn(C(C)C)cc(-c5ccc(F)cc5)c4=O)nc3)c2c1 [Example 40, 5-(4-fluorophenyl)-1-isopropyl-N-(5-((6-methoxyquinolin-4-yl)oxy)pyridin-2-yl)-4-oxo-1,4-dihydropyridine-3-carboxamide]
